Consider ten compounds from USRE46397E1, “Slow release of organic salts of local anesthetics for pain relief” (SVIP5 LLC, priority 2007, dated 2017).

For data set [1] the following is noted: cited from earlier work; for Maximum Dose: without epinephrine.
The conditions of data set [2]: cited from earlier work; for Onset: in vivo; for Duration: without epinephrine.
The next data set relates to male, Sprague-Dawley rat. As to the kind of experiment: Radiant heat pain threshold test after introducing particles into a paraspinal pocket. The format is in vivo. The conditions noted are these: 20 seconds cut-off, treated right side. On the procedure:
To test the local anesthetic efficacy and duration of effect induced by bupivacaine palmitate particles, a treatment and control side in a male, Sprague-Dawley rat (250-300 g) was employed. The animal was anesthetized with isoflurane inhalation (2.5-3%), whereupon the back was partly shaved. A 16 g needle was introduced deep to the shaved skin on the left mid paraspinal back and moved side to side to clear a small (1.0 cm diameter) pocket. A similar procedure was performed on the right side. The needle was then used to introduce test local anesthetic bupivacaine palmitate particles into the pocket on the right side.
The rat was awakened and placed in a Decapicone for restraint. As restraint itself can produce endogenous analgesic effects, the animal was allowed to rest quietly in the cone for 15 min prior to any testing. Radiant heat from a focused projection bulb with area of approximately 0.5 cm^2 was then directed to the test areas to assess the pain threshold several times on each side. The light was applied until the rat attempted to move within the restraint cone, at which time the light heat stimulus was turned off. The light heat stimulus was never allowed to exceed a 20 seconds interval in order to avoid permanent damage to the skin or undue discomfort.
The post-procedural results at 15 min, 1 and 2 days are represented in average number of seconds before movement: […]

Read-outs that look alike come from different tables or passages of the source. A value given as a limit tells only on which side of the number the result lay.

For the compound `Cc1cccc(C)c1NC(=O)C1CCCCN1C` (stereo not shown) [Mepivacaine], in data set [1], the “Maximum Dose (with Epinephrine)” value is recorded as “(7 mg/kg)” and the “Maximum Dose” value is 5 mg/kg. In addition, in data set [2], the Onset result is reported as “Rapid”, the “Duration (with Epinephrine)” value is recorded as “(360 min)” and the Duration is given as 180 min.
With `CCCCNc1ccc(C(=O)OCCN(C)C)cc1` [Tetracaine], in data set [1], the “Maximum Dose (with Epinephrine)” value is listed as “(2.5 mg/kg)” and the “Maximum Dose” value is listed as 1.5 mg/kg. Besides, in data set [2], the Onset entry is reported as “Slow”, the “Duration (with Epinephrine)” value is on record as “(10 h)” and the Duration was 180 min.
Take `CCCN(CC)C(CC)C(=O)Nc1c(C)cccc1C` (stereo not shown) [Etidocaine]: in data set [1], the “Maximum Dose (with Epinephrine)” value is “(4 mg/kg)” and the “Maximum Dose” value is 2.5 mg/kg. In data set [2], the Onset result is on record as “Rapid”, the “Duration (with Epinephrine)” value was “(8 h)” and the Duration is 240 min.
In the case of `CCCCN1CCCC[C@H]1C(=O)Nc1c(C)cccc1C` [Levobupivacaine], the “Maximum Dose” value in data set [1] (total in 24 hrs) is 400 mg in 24 hrs. Moreover, the “Maximum Dose” value in data set [1] was 2.0 mg/kg. Moreover, in data set [2], the Onset result is listed as “Medium”, the “Duration (with Epinephrine)” value is “(8-12 h)” and the Duration is 240 to 360 min.
With `CCN(CC)CCOC(=O)c1ccc(N)cc1` [Procaine], in data set [1], the “Maximum Dose (with Epinephrine)” value is reported as “(10 mg/kg)” and the “Maximum Dose” value is recorded as 8 mg/kg. In addition, in data set [2], the Onset result is “Slow”, the “Duration (with Epinephrine)” value is “(90 min)” and the Duration was 45 min.
Regarding `CCCCN1CCCCC1C(=O)Nc1c(C)cccc1C` (stereo not shown) [Bupivacaine], in data set [1], the “Maximum Dose (with Epinephrine)” value is on record as “(3 mg/kg)” and the “Maximum Dose” value was 2.5 mg/kg. Moreover, in data set [2], the Onset result was “Slow”, the “Duration (with Epinephrine)” value is “(8 h)” and the Duration was 240 min. Also, the “average number of seconds before movement” value (from here on “average number”) in the data set with male, Sprague-Dawley rat (Day 0 (15 min post-procedure), radiant heat) is greater than 20 s. In addition, the “average number” value in the data set on male, Sprague-Dawley rat (Day 1, radiant heat) turned out to be 16 s. Besides, the “average number” value in the data set on male, Sprague-Dawley rat (Day 2, radiant heat) came to 7.6 s.
For `CCN(CC)CC(=O)Nc1c(C)cccc1C` [Lidocaine, 2-(diethylamino)-N-(2,6-dimethylphenyl)-acetamide], in data set [1], the “Maximum Dose (with Epinephrine)” value is recorded as “(7 mg/kg)” and the “Maximum Dose” value is recorded as 4.5 mg/kg. In data set [2], the Onset entry is “Rapid”, the “Duration (with Epinephrine)” value is “(240 min)” and the Duration is 120 min.
Take `CCN(CC)CCOC(=O)c1ccc(N)cc1Cl` [Chloroprocaine]: in data set [1], the “Maximum Dose (with Epinephrine)” value is “(15 mg/kg)” and the “Maximum Dose” value is on record as 10 mg/kg. In data set [2], the Onset result is “Rapid”, the “Duration (with Epinephrine)” value is listed as “(90 min)” and the Duration is on record as 30 min.
With `CCCN1CCCC[C@H]1C(=O)Nc1c(C)cccc1C` [Ropivacaine], the “Maximum Dose” value in data set [1] is 2 to 3 mg/kg. Besides, in data set [2], the Onset entry is “Medium”, the “Duration (with Epinephrine)” value was “(6 h)” and the Duration was 180 min.
As to `CCCNC(C)C(=O)Nc1ccccc1C` (stereo not shown) [Prilocaine], in data set [1], the “Maximum Dose (with Epinephrine)” value is listed as “(7.5 mg/kg)” and the “Maximum Dose” value is 5 mg/kg. Besides, in data set [2], the Onset result is listed as “Medium”, the “Duration (with Epinephrine)” value is “(360 min)” and the Duration is recorded as 90 min.
